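Where inhibition never reached the appropriate level, the endpoint shown equals the highest concentration tested. Otherwise, values were interpolated linearly from a five-concentration, 48-hour dose response in 96-well plates. At the GI50, growth is halved.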 Activity calls are given as the source filed them. Rule as the data show it: active = GI50 up to about 1.1 µM and inactive = higher.
Assays:
Test in all cases: inhibition of tumour cell growth, NCI panel, 48 h
[1] = tested on: UACC-257
[2] = tested on: MDA-MB-231
[3] = tested on: Malme-3M
[4] = tested on: NCI-H23
[5] = tested on: UO-31
[6] = tested on: SNB-19
[7] = tested on: RPMI-8226
[8] = tested on: HOP-92
[9] = tested on: SR
[10] = tested on: 786-0
[11] = tested on: BT-549
[12] = tested on: MCF7
[13] = tested on: NCI/ADR-RES
[14] = tested on: EKVX
[15] = tested on: SK-MEL-2
[16] = tested on: HCC 2998
[17] = tested on: PC-3
[18] = tested on: OVCAR-3
[19] = tested on: DU-145
[20] = tested on: T47D
[21] = tested on: ACHN
[22] = tested on: MDA-N
[23] = tested on: A549
[24] = tested on: MOLT-4
[25] = tested on: OVCAR-5
[26] = tested on: IGROV-1
[27] = tested on: SF-268
[28] = tested on: SN12C
[29] = tested on: OVCAR-8
[30] = tested on: HCT-15
[31] = tested on: LOX IMVI
[32] = tested on: CAKI-1
[33] = tested on: A498
[34] = tested on: HCT-116
[35] = tested on: HL-60
[36] = tested on: COLO 205
[37] = tested on: OVCAR-4
[38] = tested on: NCI-H522
[39] = tested on: M14
[40] = tested on: UACC-62
[41] = tested on: MDA-MB-435
[42] = tested on: K562
[43] = tested on: SK-MEL-28
[44] = tested on: CCRF-CEM
[45] = tested on: HT-29
[46] = tested on: SF-539
[47] = tested on: SK-OV-3
[48] = tested on: Hs-578T
[49] = tested on: KM12
[50] = tested on: TK-10
[51] = tested on: SW-620
[52] = tested on: NCI-H460
[53] = tested on: SK-MEL-5
[54] = tested on: RXF 393
[55] = tested on: SF-295
[56] = tested on: SNB-75
[57] = tested on: U-251
[58] = tested on: HOP-62
[59] = tested on: NCI-H226

## CC(=O)Oc1ccc2ccc(=O)oc2c1OC(C)=O
[1]
  GI50: > 100 µM (inactive)
[2]
  GI50: 29.5 µM (inactive)
[3]
  GI50: > 100 µM (inactive)
[4]
  GI50: 32 µM (inactive)
[5]
  GI50: 30.1 µM (inactive)
[6]
  GI50: 32.6 µM (inactive)
[7]
  GI50: 28.4 µM (inactive)
[8]
  GI50: 64.3 µM (inactive)
[9]
  GI50: 28 µM (inactive)
[10]
  GI50: 42.1 µM (inactive)
[11]
  GI50: 40 µM (inactive)
[12]
  GI50: 46.3 µM (inactive)
[13]
  GI50: 50.6 µM (inactive)
[14]
  GI50: 67.8 µM (inactive)
[15]
  GI50: > 100 µM (inactive)
[16]
  GI50: 48 µM (inactive)
[17]
  GI50: 43 µM (inactive)
[18]
  GI50: 29.9 µM (inactive)
[19]
  GI50: > 100 µM (inactive)
[20]
  GI50: 82.4 µM (inactive)
[21]
  GI50: 45.4 µM (inactive)
[22]
  GI50: 49.8 µM (inactive)
[23]
  GI50: 30.1 µM (inactive)
[24]
  GI50: 33.3 µM (inactive)
[25]
  GI50: > 100 µM (inactive)
[26]
  GI50: 57.1 µM (inactive)
[27]
  GI50: 27.8 µM (inactive)
[28]
  GI50: 19 µM (inactive)
[29]
  GI50: 35.4 µM (inactive)
[30]
  GI50: 11.6 µM
[31]
  GI50: 21.3 µM (inactive)
[32]
  GI50: 43.6 µM (inactive)
[33]
  GI50: > 100 µM (inactive)
[34]
  GI50: 36.3 µM (inactive)
[35]
  GI50: 17.1 µM (inactive)
[36]
  GI50: 24.4 µM (inactive)
[37]
  GI50: 35 µM (inactive)
[38]
  GI50: 39.5 µM (inactive)
[39]
  GI50: 78 µM (inactive)
[40]
  GI50: 43.9 µM (inactive)
[41]
  GI50: 39.1 µM (inactive)
[42]
  GI50: 41.9 µM (inactive)
[43]
  GI50: > 100 µM (inactive)
[44]
  GI50: 10.6 µM (inactive)
[45]
  GI50: > 100 µM (inactive)
[46]
  GI50: 43.4 µM (inactive)
[47]
  GI50: 73.1 µM (inactive)
[48]
  GI50: 61.9 µM (inactive)
[49]
  GI50: 44.4 µM (inactive)
[50]
  GI50: 78.2 µM (inactive)
[51]
  GI50: 37.1 µM (inactive)
[52]
  GI50: 14.9 µM (inactive)
[53]
  GI50: 27.2 µM (inactive)
[54]
  GI50: 22.7 µM (inactive)
[55]
  GI50: 41.5 µM (inactive)
[56]
  GI50: 66.5 µM (inactive)
[57]
  GI50: 50.2 µM (inactive)
[58]
  GI50: 29.5 µM (inactive)

## O=C1C[C@@H](C(=O)OCc2ccccc2)NC(=O)C[C@@H](C(=O)OCc2ccccc2)NC(=O)C[C@@H](C(=O)OCc2ccccc2)N1
[59]
  GI50: > 100 µM (inactive)
[1]
  GI50: > 100 µM (inactive)
[2]
  GI50: 14 µM (inactive)
[4]
  GI50: 47 µM (inactive)
[5]
  GI50: > 100 µM (inactive)
[6]
  GI50: 45.5 µM (inactive)
[7]
  GI50: 38.8 µM (inactive)
[8]
  GI50: 20.7 µM (inactive)
[9]
  GI50: 4.06 µM (inactive)
[10]
  GI50: 21 µM (inactive)
[11]
  GI50: > 100 µM (inactive)
[12]
  GI50: > 100 µM (inactive)
[13]
  GI50: > 100 µM (inactive)
[14]
  GI50: > 100 µM (inactive)
[15]
  GI50: 13 µM (inactive)
[16]
  GI50: > 95.9 µM (inactive)
[17]
  GI50: > 100 µM (inactive)
[18]
  GI50: > 100 µM (inactive)
[19]
  GI50: > 100 µM (inactive)
[20]
  GI50: > 100 µM (inactive)
[21]
  GI50: 23 µM (inactive)
[22]
  GI50: > 100 µM (inactive)
[23]
  GI50: > 100 µM (inactive)
[24]
  GI50: 4.15 µM (inactive)
[25]
  GI50: > 100 µM (inactive)
[26]
  GI50: 98.6 µM (inactive)
[27]
  GI50: 15.2 µM (inactive)
[28]
  GI50: > 100 µM (inactive)
[29]
  GI50: > 100 µM (inactive)
[30]
  GI50: > 100 µM
[31]
  GI50: > 100 µM (inactive)
[32]
  GI50: > 100 µM (inactive)
[33]
  GI50: 27.5 µM (inactive)
[34]
  GI50: > 84.1 µM (inactive)
[35]
  GI50: 0.659 µM (active)
[36]
  GI50: > 100 µM (inactive)
[37]
  GI50: > 100 µM (inactive)
[38]
  GI50: 36.6 µM (inactive)
[39]
  GI50: > 92.9 µM (inactive)
[40]
  GI50: 64.7 µM (inactive)
[41]
  GI50: > 100 µM (inactive)
[42]
  GI50: 4.16 µM (inactive)
[43]
  GI50: > 100 µM (inactive)
[44]
  GI50: 0.0675 µM (active)
[45]
  GI50: > 100 µM (inactive)
[46]
  GI50: 18.5 µM (inactive)
[47]
  GI50: 20.8 µM (inactive)
[48]
  GI50: 13.1 µM (inactive)
[49]
  GI50: > 100 µM (inactive)
[50]
  GI50: 19.6 µM (inactive)
[51]
  GI50: > 100 µM (inactive)
[52]
  GI50: > 100 µM (inactive)
[53]
  GI50: > 100 µM (inactive)
[54]
  GI50: 13.3 µM (inactive)
[55]
  GI50: 20 µM (inactive)
[56]
  GI50: 1.06 µM (active)
[57]
  GI50: 12.1 µM (inactive)
[58]
  GI50: 33.9 µM (inactive)
